Test results taken from PMC12236907, “A Natural Depsipeptide Antibiotic that Targets the E site of the Bacterial Ribosome” (Research Square, 2025).

Key:
bacterial translation = details: ref [32],[33]; cited from earlier work
Method: Bound in its primary site, MKM obstructs placement of C75 and A76 of the CCA end of a deacylated tRNA within the E-site of the large ribosomal subunit, with the most significant overlap of Phe3 of MKM with the 3’ terminal adenine of the E-tRNA (Fig. 3h).

[1] = tested on: K. pneumoniae ATCC 33495 and C1559; test: C. elegans – K. pneumoniae in vivo antibiotic activity assay (survival); parameters: species or system K. pneumoniae in Caenorhabditis elegans; details: MKM 64 μg/ml or polymyxin B 25 μg/ml, 6 days, vs DMSO; Log-rank (Mantel–Cox) test
Method: A C. elegans double mutant strain, AU37 (glp-4(bn2);sek-1(km4)), was used for this assay due to its enhanced pathogen infection sensitivity and temperature-sensitive sterility. The infection protocol was carried out as previously described, with slight modifications to accommodate our experimental conditions. Standard C. elegans media and protocols were used for the maintenance and growth of worms. To summarize, eggs were collected from gravid adult worms by bleaching and incubated on solid agar plates at 25 °C for 48 hours, until early adulthood. Worms were thoroughly washed with M9 buffer and transferred onto LB agar plates containing lawns of infective K. pneumoniae and incubated for another 24 hours. Worms were then washed from plates and resuspended in M9 to an approximate 2 worm per microlitre concentration. A survival assay was conducted in a 96-well plate with experimental wells containing 15 μl of worms, 80 μl S-basal (5.85 g NaCl, 1 g K2HPO4, 6 g KH2PO4, 1 ml cholesterol (5 mg/ml in ethanol), H2O to 1 litre. Sterilize by autoclaving), and 5 μl of test compound. Plates were sealed with a porous film and incubated at 25°C for a total of 7 days. The number of dead worms were counted every 24 hours to generate a Kaplan-Meier survival curve.

eukaryotic ribosome = details: ref [23],[29],[55]; cited from earlier work
Description: Superficially, the mode of action of MKM resembles that of CHX, since MKM also stalls the elongating ribosome. However, the mechanism of translation inhibition by CHX and MKM are likely to be principally different. Because of the small size of CHX, it was proposed to co-accommodate in the E site of the eukaryotic ribosome ...

Molecule	inhibition of bacterial translation (bacterial translation)	survival benefit in C. elegans (in words) [1]	effect on eukaryotic translation (eukaryotic ribosome)
CC(=O)O[C@@H]1[C@@H](O)[C@H](O[C@H]2[C@H](OC(=O)[C@H]3CC[C@@H]4[C@H](C3)O[C@@]3(C[C@H](OC(=O)/C=C/c5ccccc5)[C@H](C)CO3)[C@]43CO3)O[C@H](C)[C@@H](O)[C@@H]2OC(C)=O)O[C@H](C)[C@H]1O [phyllanthoside]	do not inhibit bacterial translation	–	–
polymyxin B [reference compound]	–	significantly improved survival	–
C/C=C\[C@H](C)[C@H]1O[C@]1(C)[C@@H](O)[C@H]1COC(=O)[C@H](O)[C@@H](OC)[C@H](C)C(=O)[C@H](C)[C@@H](O)/C(C)=C/[C@H](C)C(=O)CC[C@@H](C)C1=O [13-deoxytedanolide]	do not inhibit bacterial translation	–	–
C[C@@H]1C[C@@H]([C@H](O)CC2CC(=O)NC(=O)C2)C(=O)[C@@H](C)C1 [cycloheximide]	do not inhibit bacterial translation	–	arrests the elongating ribosome
C/C(=C\[C@H](C)C(=O)C[C@H](O)CC1CC(=O)NC(=O)C1)[C@@H]1OC(=O)/C=C/CC/C=C/C=C\[C@@H]1C [lactimidomycin]	do not inhibit bacterial translation	–	captures the ribosomes at start codons but has little effect on translation elongation or termination
